Converted amounts (≈) assume the structure as drawn.
Experiments:
Type in all cases: functional, Salmonella enterica subsp. enterica serovar Typhi
[1] = system: Salmonella enterica subsp. enterica; experiment: Antimicrobial activity against multidrug-resistant Salmonella enterica Serovar Typhi isolate nar 102 harboring DNA gyrase A S83F mutation by disk diffusion method in presence of plasmid mediated quinolone-resistant gene qnrA and qnrS
[2] = system: Salmonella enterica subsp. enterica; experiment: Antimicrobial activity against multidrug-resistant Salmonella enterica Serovar Typhi isolate ipt 33 harboring DNA gyrase A S83F mutation by disk diffusion method
[3] = system: Salmonella enterica subsp. enterica; experiment: Antimicrobial activity against multidrug-resistant Salmonella enterica Serovar Typhi isolate DT48 harboring DNA gyrase A S83F mutation by disk diffusion method
[4] = system: Salmonella enterica subsp. enterica; experiment: Antimicrobial activity against Salmonella enterica Serovar Typhi isolate AG3 harboring DNA gyrase A S83F mutation by disk diffusion method
[5] = system: Salmonella enterica subsp. enterica; experiment: Antimicrobial activity against multidrug-resistant Salmonella enterica Serovar Typhi isolate nar 50 harboring DNA gyrase A S83F mutation by disk diffusion method
[6] = system: Salmonella enterica subsp. enterica; experiment: Antimicrobial activity against multidrug-resistant Salmonella enterica Serovar Typhi isolate AG5 harboring DNA gyrase A S83F mutation by disk diffusion method
[7] = system: Salmonella enterica subsp. enterica; experiment: Antimicrobial activity against Salmonella enterica Serovar Typhi isolate CT144 harboring DNA gyrase A D87G mutation by disk diffusion method in presence of plasmid mediated quinolone-resistant gene qnrA and qnrS
[8] = system: Salmonella enterica subsp. enterica; experiment: Antimicrobial activity against multidrug-resistant Salmonella enterica Serovar Typhi isolate AG152 harboring DNA gyrase A S83F and D87G mutation by disk diffusion method in presence of plasmid mediated quinolone-resistant gene qnrA and qnrS
[9] = system: Salmonella enterica subsp. enterica; experiment: Antimicrobial activity against multidrug-resistant Salmonella enterica Serovar Typhi isolate nar 104 harboring DNA gyrase A S83F mutation by disk diffusion method in presence of plasmid mediated quinolone-resistant gene qnrA and qnrS
[10] = system: Salmonella enterica subsp. enterica; experiment: Antimicrobial activity against multidrug-resistant Salmonella enterica Serovar Typhi isolate AG7 harboring DNA gyrase A S83F mutation by disk diffusion method
[11] = system: Salmonella enterica subsp. enterica; experiment: Antimicrobial activity against multidrug-resistant Salmonella enterica Serovar Typhi isolate BL 3769 harboring DNA gyrase A S83F mutation by disk diffusion method in presence of plasmid mediated quinolone-resistant gene qnrA and qnrS
[12] = system: Salmonella enterica subsp. enterica; experiment: Antimicrobial activity against Salmonella enterica Serovar Typhi isolate AG169 harboring DNA gyrase A S83F mutation by disk diffusion method
[13] = system: Salmonella enterica subsp. enterica; experiment: Antimicrobial activity against multidrug-resistant Salmonella enterica Serovar Typhi isolate nar 107 harboring DNA gyrase A S83F mutation by disk diffusion method in presence of plasmid mediated quinolone-resistant gene qnrA and qnrS
[14] = system: Salmonella enterica subsp. enterica; experiment: Antimicrobial activity against multidrug-resistant Salmonella enterica Serovar Typhi isolate A102 harboring DNA gyrase A S83Y mutation by disk diffusion method in presence of plasmid mediated quinolone-resistant gene qnrA and qnrS
[15] = system: Salmonella enterica subsp. enterica; experiment: Antimicrobial activity against Salmonella enterica Serovar Typhi isolate D43 harboring DNA gyrase A S83Y mutation by disk diffusion method in presence of plasmid mediated quinolone-resistant gene qnrA and qnrS
[16] = system: Salmonella enterica subsp. enterica; experiment: Antimicrobial activity against multidrug-resistant Salmonella enterica Serovar Typhi isolate DT42 harboring DNA gyrase A S83F mutation by disk diffusion method
[17] = system: Salmonella enterica subsp. enterica; experiment: Antimicrobial activity against multidrug-resistant Salmonella enterica Serovar Typhi isolate DT3 harboring DNA gyrase A S83F mutation by disk diffusion method in presence of plasmid mediated quinolone-resistant gene qnrA and qnrS
[18] = system: Salmonella enterica subsp. enterica; experiment: Antimicrobial activity against multidrug-resistant Salmonella enterica Serovar Typhi isolate DT37 harboring DNA gyrase A S83F mutation by disk diffusion method
[19] = system: Salmonella enterica subsp. enterica; experiment: Antimicrobial activity against multidrug-resistant Salmonella enterica Serovar Typhi isolate CT118 harboring DNA gyrase A S83F mutation by disk diffusion method in presence of plasmid mediated quinolone-resistant gene qnrA and qnrS
[20] = system: Salmonella enterica subsp. enterica; experiment: Antimicrobial activity against multidrug-resistant Salmonella enterica Serovar Typhi isolate AG16 harboring DNA gyrase A S83F mutation by disk diffusion method
[21] = system: Salmonella enterica subsp. enterica; experiment: Antimicrobial activity against multidrug-resistant Salmonella enterica Serovar Typhi isolate DT60 harboring DNA gyrase A S83F mutation by disk diffusion method
[22] = system: Salmonella enterica subsp. enterica; experiment: Antimicrobial activity against multidrug-resistant Salmonella enterica Serovar Typhi isolate DT40 harboring DNA gyrase A S83F mutation by disk diffusion method
[23] = system: Salmonella enterica subsp. enterica; experiment: Antimicrobial activity against Salmonella enterica Serovar Typhi isolate AG182 harboring DNA gyrase A S83F mutation by disk diffusion method
[24] = system: Salmonella enterica subsp. enterica; experiment: Antimicrobial activity against Salmonella enterica Serovar Typhi isolate AG258 harboring DNA gyrase A S83F mutation by disk diffusion method in presence of plasmid mediated quinolone-resistant gene qnrA and qnrS
[25] = system: Salmonella enterica subsp. enterica; experiment: Antimicrobial activity against multidrug-resistant Salmonella enterica Serovar Typhi isolate nar 46 harboring DNA gyrase A D87G mutation by disk diffusion method
[26] = system: Salmonella enterica subsp. enterica; experiment: Antimicrobial activity against Salmonella enterica Serovar Typhi isolate ipt 2 harboring DNA gyrase A D87G mutation by disk diffusion method in presence of plasmid mediated quinolone-resistant gene qnrA and qnrS
[27] = system: Salmonella enterica subsp. enterica; experiment: Antimicrobial activity against multidrug-resistant Salmonella enterica Serovar Typhi isolate nar 45 harboring DNA gyrase A S83F mutation by disk diffusion method
[28] = system: Salmonella enterica subsp. enterica; experiment: Antimicrobial activity against multidrug-resistant Salmonella enterica Serovar Typhi isolate DT15 harboring DNA gyrase A S83F mutation by disk diffusion method
[29] = system: Salmonella enterica subsp. enterica; experiment: Antimicrobial activity against multidrug-resistant Salmonella enterica Serovar Typhi isolate AG6 harboring DNA gyrase A S83F mutation by disk diffusion method
[30] = system: Salmonella enterica subsp. enterica; experiment: Antimicrobial activity against multidrug-resistant Salmonella enterica Serovar Typhi isolate DT18 harboring DNA gyrase A S83F and D87G mutation by disk diffusion method
[31] = system: Salmonella enterica subsp. enterica; experiment: Antimicrobial activity against multidrug-resistant Salmonella enterica Serovar Typhi isolate DT47 harboring DNA gyrase A S83F mutation by disk diffusion method in presence of plasmid mediated quinolone-resistant gene qnrA and qnrS
[32] = system: Salmonella enterica subsp. enterica; experiment: Antimicrobial activity against Salmonella enterica Serovar Typhi isolate E86 harboring DNA gyrase A S83F mutation by disk diffusion method in presence of plasmid mediated quinolone-resistant gene qnrA and qnrS
[33] = system: Salmonella enterica subsp. enterica; experiment: Antimicrobial activity against multidrug-resistant Salmonella enterica Serovar Typhi isolate CT61 harboring DNA gyrase A S83F mutation by disk diffusion method in presence of plasmid mediated quinolone-resistant gene qnrA and qnrS
[34] = system: Salmonella enterica subsp. enterica; experiment: Antimicrobial activity against multidrug-resistant Salmonella enterica Serovar Typhi isolate DT9 harboring DNA gyrase A S83F mutation by disk diffusion method
[35] = system: Salmonella enterica subsp. enterica; experiment: Antimicrobial activity against multidrug-resistant Salmonella enterica Serovar Typhi isolate AG17 harboring DNA gyrase A S83F mutation by disk diffusion method
[36] = system: Salmonella enterica subsp. enterica; experiment: Antimicrobial activity against multidrug-resistant Salmonella enterica Serovar Typhi isolate DT2 harboring DNA gyrase A S83F mutation by disk diffusion method in presence of plasmid mediated quinolone-resistant gene qnrA and qnrS
[37] = system: Salmonella enterica subsp. enterica; experiment: Antimicrobial activity against Salmonella enterica Serovar Typhi isolate C152 harboring DNA gyrase A S83Y mutation by disk diffusion method in presence of plasmid mediated quinolone-resistant gene qnrA and qnrS
[38] = system: Salmonella enterica subsp. enterica; experiment: Antimicrobial activity against multidrug-resistant Salmonella enterica Serovar Typhi isolate HTD 798 harboring DNA gyrase A S83F mutation by disk diffusion method
[39] = system: Salmonella enterica subsp. enterica; experiment: Antimicrobial activity against Salmonella enterica Serovar Typhi isolate nar 108 harboring DNA gyrase A S83F mutation by disk diffusion method in presence of plasmid mediated quinolone-resistant gene qnrA and qnrS
[40] = system: Salmonella enterica subsp. enterica; experiment: Antimicrobial activity against multidrug-resistant Salmonella enterica Serovar Typhi isolate nar 28 harboring DNA gyrase A S83F mutation by disk diffusion method

| SMILES | MIC [1] | MIC [2] | MIC [3] | MIC [4] | MIC [5] | MIC [6] | MIC [7] | MIC [8] | MIC [9] | MIC [10] | MIC [11] | MIC [12] | MIC [13] | MIC [14] | MIC [15] | MIC [16] | MIC [17] | MIC [18] | MIC [19] | MIC [20] | other results |
| --- | --- | --- | --- | --- | --- | --- | --- | --- | --- | --- | --- | --- | --- | --- | --- | --- | --- | --- | --- | --- | --- |
| CC1COc2c(N3CCN(C)CC3)c(F)cc3c(=O)c(C(=O)O)cn1c23 (stereo not given) [OFLOXACIN] | 1 µg/mL | 0.5 µg/mL (≈ 1.38 µM) | 1 µg/mL (≈ 2.77 µM) | 2 µg/mL (≈ 5.53 µM) | 1 µg/mL (≈ 2.77 µM) | 1 µg/mL (≈ 2.77 µM) | 1 µg/mL | 3 µg/mL | 1 µg/mL | 1.5 µg/mL (≈ 4.15 µM) | 0.5 µg/mL | 1 µg/mL (≈ 2.77 µM) | 1 µg/mL | 0.5 µg/mL | 0.5 µg/mL | 1 µg/mL (≈ 2.77 µM) | 2 µg/mL | 1 µg/mL (≈ 2.77 µM) | 1 µg/mL | 1.5 µg/mL (≈ 4.15 µM) | MIC [21]: 1 µg/mL (≈ 2.77 µM); MIC [22]: 0.5 µg/mL (≈ 1.38 µM); MIC [23]: 1 µg/mL (≈ 2.77 µM); MIC [24]: 1.5 µg/mL; MIC [25]: 0.5 µg/mL (≈ 1.38 µM); MIC [26]: 2 µg/mL; MIC [27]: 0.5 µg/mL (≈ 1.38 µM); MIC [28]: 1 µg/mL (≈ 2.77 µM); MIC [29]: 1 µg/mL (≈ 2.77 µM); MIC [30]: 2 µg/mL (≈ 5.53 µM); MIC [31]: 1 µg/mL; MIC [32]: 0.5 µg/mL; MIC [33]: 1 µg/mL; MIC [34]: 2 µg/mL (≈ 5.53 µM); MIC [35]: 1.5 µg/mL (≈ 4.15 µM); MIC [36]: 2 µg/mL; MIC [37]: 0.5 µg/mL; MIC [38]: 1 µg/mL (≈ 2.77 µM); MIC [39]: 1 µg/mL; MIC [40]: 1 µg/mL (≈ 2.77 µM) |
| CCn1cc(C(=O)O)c(=O)c2ccc(C)nc21 [NALIDIXIC ACID] | 128 µg/mL | 256 µg/mL (≈ 1100 µM) | > 256 µg/mL | > 256 µg/mL | 256 µg/mL (≈ 1100 µM) | > 256 µg/mL | > 256 µg/mL | > 256 µg/mL | 256 µg/mL | > 256 µg/mL | > 256 µg/mL | > 256 µg/mL | 256 µg/mL | > 256 µg/mL | > 256 µg/mL | > 256 µg/mL | > 256 µg/mL | > 256 µg/mL | > 256 µg/mL | > 256 µg/mL | MIC [21]: > 256 µg/mL; MIC [22]: > 256 µg/mL; MIC [23]: > 256 µg/mL; MIC [24]: > 256 µg/mL; MIC [25]: 64 µg/mL (≈ 276 µM); MIC [26]: 256 µg/mL; MIC [27]: 256 µg/mL (≈ 1100 µM); MIC [28]: > 256 µg/mL; MIC [29]: > 256 µg/mL; MIC [30]: > 256 µg/mL; MIC [31]: 128 µg/mL; MIC [32]: > 256 µg/mL; MIC [33]: 256 µg/mL; MIC [34]: > 256 µg/mL; MIC [35]: > 256 µg/mL; MIC [36]: > 256 µg/mL; MIC [37]: > 256 µg/mL; MIC [38]: > 256 µg/mL; MIC [39]: 256 µg/mL; MIC [40]: 256 µg/mL (≈ 1100 µM) |
